Laboratory results published in patent US5232924A, “Heterocyclic compound having serotonine 2-receptor antagonistic activity” (Daiichi Pharmaceutical Co., Ltd., priority 1989, dated 1993).

How the values were obtained:
Serotonin 2-Receptor = biological target: T1, Serotonin 2-Receptor (Rattus norvegicus, UniProt P14842); assay: Binding activity to serotonin 2-receptor, 3H-Ketanserin, rat frontal cortex membrane preparation; conditions: calculated from the 50% inhibitory concentration, hydrochloride, read-out: dissociation constant for serotonin 2-receptor
T1 construct: from tissue; host or cells: intact anesthetized SD-SLC male rat (vascular response)
Protocol: A male SD rat was decapitated under anesthesia, and the frontal cortex was removed to obtain a membrane preparation. ^3 H-Ketanserin and Methysergide were used as a labelled ligand and a non-specific binding reagent, respectively. These reagents and a test compound thereof were dissolved in a 5% methanol tris-buffer solution. After incubation, this solution was filtered by suction through a GF/B glass filter. Radioactivity of ^3 H-Ketanserin collected on the filter was measured with a liquid scintillation counter. A Scatchard plot was prepared from the resulting radioactivity values, and a dissociation constant of serotonin 2-receptor and a receptor density of the membrane preparation were obtained. Further, from the receptor-binding inhibition curve of the compound is obtained a 50% inhibitory concentration, and a dissociation constant indicative of the binding affinity to serotonin 2-receptor was calculated.

Mongrel dogs [1] = assay: Acute cardiac infarction model: LDA ligature and reperfusion in dogs; format: in vivo; conditions: dog, hydrochloride 1 mg/kg/hr intravenous drip, versus control group
Protocol: Mongrel dogs (body weight: 8 to 20 kg) under anesthesia were ventilated artificially and underwent a left thracotomy. […] A polyethylene cannula was inserted into the femoral artery, and the blood pressure and heart rate were recorded A cannula was inserted into the […] of a drug and also into the carotid artery from which a blood sample was to be taken. After stabilization period of the test preparation, LDA was ligated with a clamp. After 2 hours from the ligature, the clamp was released for reperfusion. After observation for the following 4 hours, the heart was excised. […] Then, the heart was washed and sliced at 1 cm intervals from the apex in the direction vertical to the longer axis. Each slice at the left ventricle was divided into a part which was in risk of cardiac infarction indicated by Evans' Blue stain (hereinafter referred to as risk area) and a normal area, and each area was weighed. The weight of the left ventricle (the sum of the risk area and the normal area) and that of the risk area of each slice were individually added up to obtain the weight of the whole left ventricle and the total weight of the risk area. Further, of each slice, the area of the risk area which was not stained with Evans' Blue and that of a cardiac infarction area within the risk area which remained white, i.e., which was stained neither in blue with Evans' Blue nor in red with triphenyltetrazolium chloride, were measured to obtain a ratio of cardiac infarction part to the whole left ventricle (infarction size). […] The experiment was conducted for the following groups.

Mongrel dogs [2] = assay: Angina pectoris model: partial LDA occlusion with cyclic coronary flow reduction in dogs; format: in vivo; conditions: dog, maleate 0.1 mg/kg i.v., compared with before administration
Protocol: Mongrel dogs (body weight: 8 to 20 kg) under anesthesia with pentobarbital (30 mg/kg, i.v.) were ventilated artificially and underwent a left thoracotomy. LDA was separated from connected tissues. A silicone tube for partial occlusion was placed around the LDA, and a probe for blood flow rate measurement was fixed in the neighborhood. The blood flow rate was measured with a pulse Doppler blood flow meter. A cannula was inserted into a branch distal to the occlusion site of the left coronary artery, and the coronary blood pressure was measured. A polyethylene cannula was inserted into the femoral artery, and the systemic blood pressure and heart rate were recorded. A cannula was inserted to the femoral vein for administration of a drug.
The effect of the drug was expressed in terms of frequency of the periodic reduction of blood flow rate.

T1 sequence (P14842 whole entry): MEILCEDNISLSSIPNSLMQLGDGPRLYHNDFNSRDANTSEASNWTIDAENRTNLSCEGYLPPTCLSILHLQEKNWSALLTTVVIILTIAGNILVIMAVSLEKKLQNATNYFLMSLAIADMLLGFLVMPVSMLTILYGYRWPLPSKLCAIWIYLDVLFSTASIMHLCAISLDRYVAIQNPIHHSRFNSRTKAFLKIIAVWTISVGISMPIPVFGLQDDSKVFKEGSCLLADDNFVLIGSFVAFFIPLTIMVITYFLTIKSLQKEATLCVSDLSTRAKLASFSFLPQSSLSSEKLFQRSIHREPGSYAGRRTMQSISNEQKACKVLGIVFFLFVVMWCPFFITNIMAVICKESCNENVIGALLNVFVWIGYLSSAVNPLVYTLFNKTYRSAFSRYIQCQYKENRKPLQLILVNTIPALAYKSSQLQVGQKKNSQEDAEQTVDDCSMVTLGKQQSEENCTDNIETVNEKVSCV

For `O=C(c1ccc(F)cc1)C1CCN(CCn2c(=O)nc3n(c2=O)CCCC3)CC1` [Example 1, 3-[2-[4-(4-Fluorobenzoyl)piperidin-1-yl]ethyl]-6,7,8,9-tetrahydro-2H-pyrido[1,2-a]-1,3,5-triazine-2,4(3H)-dione], the Ki (Serotonin 2-Receptor) was 15 nM, the “effect on myocardial infarction size (in words)” value (Mongrel dogs [1]) was “significantly reduced” and the “effect on frequency of the cyclic coronary flow reduction (in words)” value (Mongrel dogs [2]) was “significantly reduces”.
